Laboratory results published in patent US6251944A, “Para-substituted phenylene derivatives” (G. D. Searle & Company, priority 1999, dated 2001).
Structures can show the parent of a compound that is named as a salt.

Experiments:
[1] = target: T1, Human vitronectin receptor(αvβ3) (Homo sapiens, UniProt P05106+P06756); test: Vitronectin adhesion assay (solid phase receptor assay, αvβ3); details: inhibition of 50% of maximum binding of biotinylated vitronectin; highest concentration tested 1.0×10^-4 M; read-out: AvB3 IC50
T1 construct: purified from human placenta; from tissue; host or cells: human placenta
Method: The activity of the compounds of the present invention was tested in the following assays. […] Assay buffer, OPD substrate tablets, and RIA grade BSA were obtained from Sigma (St. Louis, Mo.). Anti-biotin antibody was obtained from Calbiochem (La Jolla, Calif.). Linbro microtiter plates were obtained from Flow Labs (McLean, Va.). ADP reagent was obtained from Sigma (St. Louis, Mo.). […] The purified human vitronectin receptor (αvβ3) was diluted from stock solutions to 1.0 μg/mL in Tris-buffered saline containing 1.0 mM Ca^++, Mg^++, and Mn^++, pH 7.4 (TBS^+++). The diluted receptor was immediately transferred to Linbro microtiter plates at 100 μL/well (100 ng receptor/well). The plates were sealed and incubated overnight at 4° C. to allow the receptor to bind to the wells. All remaining steps were at room temperature. The assay plates were emptied and 200 μL of 1% RIA grade BSA in TBS^+++ (TBS^+++ /BSA) were added to block exposed plastic surfaces. Following a 2 hour incubation, the assay plates were washed with TBS^+++ using a 96 well plate washer. […] The competition occurred for two hours after which all wells were washed with a plate washer as before. […] After 30 minutes, the plates were washed and incubated with OPD/H2 O2 substrate in 100 mM/L Citrate buffer, pH 5.0. […] The data were analyzed using a macro written for use with the EXCEL™ spreadsheet program. The mean, standard deviation, and % CV were determined for duplicate concentrations. The mean A450 values were normalized to the mean of four maximum-binding controls (no competitor added)(B-MAX). The normalized values were subjected to a four parameter curve fit algorithm [Rodbard et al., Int. […] Ser.

[2] = target: T2, Human fibrinogen receptor (αIIbβ3) (Homo sapiens, UniProt P05106+P08514); test: Purified IIb/IIIa receptor assay (solid phase receptor assay); details: inhibition of 50% of maximum binding of biotinylated vitronectin; highest concentration tested 1.0×10^-4 M
T2 construct: purified from outdated platelets; from tissue; host or cells: outdated platelets (human)
Method: The activity of the compounds of the present invention was tested in the following assays.
Human fibrinogen receptor (αIIbβ3) was purified from outdated platelets. […] Biotinylated human vitronectin was prepared by coupling NHS-biotin from Pierce Chemical Company (Rockford, Ill.) to purified vitronectin as previously described. […] Anti-biotin antibody was obtained from Calbiochem (La Jolla, Calif.). Linbro microtiter plates were obtained from Flow Labs (McLean, Va.). ADP reagent was obtained from Sigma (St. Louis, Mo.).
Solid Phase Receptor Assays
The purified human fibrinogen receptor (αIIbβ3) was diluted from stock solutions to 1.0 μg/mL in Tris-buffered saline containing 1.0 mM Ca^++, Mg^++, and Mn^++, pH 7.4 (TBS^+++). The diluted receptor was immediately transferred to Linbro microtiter plates at 100 μL/well (100 ng receptor/well). The plates were sealed and incubated overnight at 4° C. to allow the receptor to bind to the wells. All remaining steps were at room temperature. The assay plates were emptied and 200 μL of 1% RIA grade BSA in TBS^+++ (TBS^+++ /BSA) were added to block exposed plastic surfaces. Following a 2 hour incubation, the assay plates were washed with TBS^+++ using a 96 well plate washer. Logarithmic serial dilution of the test compound and controls were made starting at a stock concentration of 2 mM and using 2 nM biotinylated vitronectin in TBS^+++ /BSA as the diluent. This premixing of labeled ligand with test (or control) ligand, and subsequent transfer of 50 μL aliquots to the assay plate was carried out with a CETUS Propette robot; the final concentration of the labeled ligand was 1 nM and the highest concentration of test compound was 1.0×10^-4 M. The competition occurred for two hours after which all wells were washed with a plate washer as before. Affinity purified horseradish peroxidase labeled goat anti-biotin antibody was diluted 1:3000 in TBS^+++ /BSA and 125 μL were added to each well. After 30 minutes, the plates were washed and incubated with […]/H2 O2 substrate in 100 mM/L citrate buffer, pH 5.0. The plate was read with a microtiter plate reader at a wavelength of 450 nm and when the maximum-binding control wells reached an absorbance of about 1.0, the final A450 were recorded for analysis. The data were analyzed using a macro written for use with the EXCEL™ spreadsheet program. The mean, standard deviation, and % CV were determined for duplicate concentrations. The mean A450 values were normalized to the mean of four maximum-binding controls (no competitor added) (B-MAX). The normalized values were subjected to a four parameter curve fit algorithm, [Robard et al., Int.

T1 sequence (P06756 31-889 limits assumed): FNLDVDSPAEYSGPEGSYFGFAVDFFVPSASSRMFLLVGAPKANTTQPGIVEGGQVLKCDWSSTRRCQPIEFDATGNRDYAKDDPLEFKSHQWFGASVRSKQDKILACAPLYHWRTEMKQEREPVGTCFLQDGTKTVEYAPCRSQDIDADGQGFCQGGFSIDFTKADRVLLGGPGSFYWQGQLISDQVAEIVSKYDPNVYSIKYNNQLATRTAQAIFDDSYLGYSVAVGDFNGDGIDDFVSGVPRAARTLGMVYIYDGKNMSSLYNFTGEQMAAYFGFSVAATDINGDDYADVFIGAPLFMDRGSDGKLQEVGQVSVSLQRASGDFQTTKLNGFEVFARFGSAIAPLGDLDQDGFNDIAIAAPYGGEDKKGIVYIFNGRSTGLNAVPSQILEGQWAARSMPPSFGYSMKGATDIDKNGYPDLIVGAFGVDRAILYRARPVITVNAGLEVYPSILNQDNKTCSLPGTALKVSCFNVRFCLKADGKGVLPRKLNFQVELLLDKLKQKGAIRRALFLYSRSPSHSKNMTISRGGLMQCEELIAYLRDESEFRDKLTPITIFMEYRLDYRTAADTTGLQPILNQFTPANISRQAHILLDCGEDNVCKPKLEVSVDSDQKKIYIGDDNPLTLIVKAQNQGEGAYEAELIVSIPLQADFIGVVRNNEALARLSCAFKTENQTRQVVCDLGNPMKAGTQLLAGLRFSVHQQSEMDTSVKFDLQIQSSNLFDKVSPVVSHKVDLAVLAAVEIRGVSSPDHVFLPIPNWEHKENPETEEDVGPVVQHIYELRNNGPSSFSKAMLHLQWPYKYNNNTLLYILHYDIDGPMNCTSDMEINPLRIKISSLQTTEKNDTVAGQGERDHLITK
T1 sequence (P06756 891-1048 limits assumed): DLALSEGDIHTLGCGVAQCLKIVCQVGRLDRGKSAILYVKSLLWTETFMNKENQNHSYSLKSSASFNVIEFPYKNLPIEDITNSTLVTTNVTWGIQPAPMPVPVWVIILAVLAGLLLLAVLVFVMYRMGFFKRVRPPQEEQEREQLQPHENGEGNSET
T1 sequence (P05106 27-788): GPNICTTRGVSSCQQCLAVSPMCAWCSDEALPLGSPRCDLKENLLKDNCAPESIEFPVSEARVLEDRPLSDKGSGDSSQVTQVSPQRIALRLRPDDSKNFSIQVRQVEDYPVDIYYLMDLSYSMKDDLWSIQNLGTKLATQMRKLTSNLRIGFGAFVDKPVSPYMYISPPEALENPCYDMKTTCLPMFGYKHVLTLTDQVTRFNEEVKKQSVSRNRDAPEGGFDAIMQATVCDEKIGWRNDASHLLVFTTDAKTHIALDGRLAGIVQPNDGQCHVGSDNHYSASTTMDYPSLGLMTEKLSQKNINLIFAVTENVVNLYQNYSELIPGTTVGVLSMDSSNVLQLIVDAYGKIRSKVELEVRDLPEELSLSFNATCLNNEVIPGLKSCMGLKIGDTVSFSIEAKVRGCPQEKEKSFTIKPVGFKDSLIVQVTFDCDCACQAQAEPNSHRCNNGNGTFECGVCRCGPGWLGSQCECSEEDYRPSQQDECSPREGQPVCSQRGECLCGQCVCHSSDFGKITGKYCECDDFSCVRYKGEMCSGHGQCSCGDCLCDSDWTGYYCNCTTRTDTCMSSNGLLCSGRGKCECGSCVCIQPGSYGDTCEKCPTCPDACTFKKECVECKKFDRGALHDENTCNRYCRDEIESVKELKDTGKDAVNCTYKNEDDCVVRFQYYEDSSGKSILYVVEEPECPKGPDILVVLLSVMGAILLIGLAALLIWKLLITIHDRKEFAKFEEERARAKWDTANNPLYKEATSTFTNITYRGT
T2 sequence (P08514 32-887 limits assumed): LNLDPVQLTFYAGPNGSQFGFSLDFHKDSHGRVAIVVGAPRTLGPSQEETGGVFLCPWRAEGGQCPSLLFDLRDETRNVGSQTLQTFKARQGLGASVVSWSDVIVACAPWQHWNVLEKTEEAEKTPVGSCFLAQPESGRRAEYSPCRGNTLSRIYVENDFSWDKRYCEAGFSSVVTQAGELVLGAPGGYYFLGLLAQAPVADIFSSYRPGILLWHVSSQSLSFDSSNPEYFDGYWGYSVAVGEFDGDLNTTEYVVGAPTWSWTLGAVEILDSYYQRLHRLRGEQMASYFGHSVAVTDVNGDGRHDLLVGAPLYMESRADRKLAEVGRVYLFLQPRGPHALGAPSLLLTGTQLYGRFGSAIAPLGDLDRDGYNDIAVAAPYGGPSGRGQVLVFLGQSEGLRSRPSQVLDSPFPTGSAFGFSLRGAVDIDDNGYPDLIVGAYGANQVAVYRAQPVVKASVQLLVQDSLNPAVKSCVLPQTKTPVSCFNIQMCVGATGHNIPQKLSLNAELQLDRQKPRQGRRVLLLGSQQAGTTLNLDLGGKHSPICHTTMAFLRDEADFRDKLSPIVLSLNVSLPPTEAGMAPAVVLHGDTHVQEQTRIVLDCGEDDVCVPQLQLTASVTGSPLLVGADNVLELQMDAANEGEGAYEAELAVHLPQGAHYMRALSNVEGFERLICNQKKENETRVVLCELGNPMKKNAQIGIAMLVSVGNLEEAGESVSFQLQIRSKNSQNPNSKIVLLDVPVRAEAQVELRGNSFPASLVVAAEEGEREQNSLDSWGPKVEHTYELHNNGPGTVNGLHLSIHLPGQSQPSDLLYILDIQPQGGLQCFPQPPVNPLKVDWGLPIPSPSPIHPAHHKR
T2 sequence (P08514 891-1039 limits assumed): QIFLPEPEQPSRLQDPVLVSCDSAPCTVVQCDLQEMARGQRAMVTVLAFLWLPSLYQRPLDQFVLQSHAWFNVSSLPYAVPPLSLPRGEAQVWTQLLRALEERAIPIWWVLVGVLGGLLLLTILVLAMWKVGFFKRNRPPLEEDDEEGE
T2 sequence (P05106 27-788): as the sequence (P05106 27-788) above

Row | SMILES | IC50 [1] | IC50 [2]
1 | CC(C)(C)CC(=O)NC(Cc1ccc(NC(=O)c2cc(NC(=N)N)cc(C(F)(F)F)c2)cc1)C(=O)O (centres unmarked) [Example 110, 4-[[[3-[(aminoiminomethyl)amino]-5-(trifluoromethyl)phenyl]carbonyl]amino]-N-(3,3-dimethyl-1-oxobutyl)phenylalanine, trifluoroacetate Salt] | 4 nM | 326 nM
2 | COc1cc(NC(=O)c2cccc(NC(=N)N)c2)ccc1CC(NC(=O)OC(C)C)C(=O)O (centres unmarked) [Example 113, 4-[[[3-[(aminoiminomethyl)amino]phenyl]carbonyl]amino]-2-methoxy-N-[(1-methylethoxy)carbonyl]phenylalanine, trifluoroacetate salt, monohydrate] | 1 nM | 253 nM
3 | COc1cc(NC(=O)c2cccc(NC(=N)N)c2)ccc1OCC(=O)O [Example 118, [4-[[[3-[(aminoiminomethyl)amino]phenyl]carbonyl]amino]-2-methoxyphenoxy]acetic Acid, trifluoroacetate Salt] | 3 nM | 54 nM
4 | N=C(N)Nc1cccc(C(=O)Nc2ccc(CC(NS(=O)(=O)/C=C/c3ccccc3)C(=O)O)cc2)c1 (centres unmarked) [Example 123, 4-[[[3-[(aminoiminomethyl)amino]phenyl]carbonyl]amino]-N-[(2-phenylethenyl)sulfonyl]phenylalanine, trifluoroacetate Salt] | 0.5 nM | 1.5 nM
5 | CC(C)(C)NC(=O)NC(Cc1ccc(NC(=O)c2cccc(NC(=N)N)c2)cc1)C(=O)O (centres unmarked) [Example 124, 4-[[[3-[(aminoiminomethyl)amino]phenyl]carbonyl)amino]-N-[[(1,1-dimethylethyl)amino]carbonyl]phenylalanine, trifluoroacetate Salt] | 3 nM | 285 nM
6 | CC(C)OC(=O)NC(Cc1ccc(NC(=O)c2cccc(C(=O)NC(=N)N)c2)cc1)C(=O)O (centres unmarked) [Example 128, 4-[[[3-[[(aminoiminomethyl)amino]carbonyl]phenyl]carbonyl]amino]-N-[(1-methylethoxy)carbonyl]phenylalanine, trifluoroacetate Salt] | 216 nM | 20 nM
7 | CCC(Cc1ccc(NC(=O)c2cccc(NC(=N)N)c2)cc1)C(=O)O (stereo not drawn) [Example 129, 4-[[[3-[(aminoiminomethyl)amino]phenyl]carbonyl]amino]-α-ethylbenzenepropanoic Acid, trifluoroacetate Salt] | 265 nM | 5260 nM
